# From article PMC13197777, “Distinct 2-phenylimidazo[1,2-a]pyridine derivatives that inhibit breast cancer cell proliferation identified as AHR ligands” (iScience, 2026)
# Experiments:
# [1] = test system: PDxO#28; assay: Organoid viability, CellTiter-Glo 3D; type: cell-based, human; conditions: PDxO#28 in 3D Matrigel, 7 days, increasing doses; same results in PDO#268 and PDO#480
# Text: Organoids were generated from patients’ samples and from patient-derived xenograft (PDX) tumors, as previously described.[25] PDX were derived from BCRO#28, an ER^+ breast cancer sample collected from a treatment naive patient. PDO#268 was derived from BCRO#268, an ER^+ breast cancer sample collected from treatment naive patient. PDO#480 was derived from BCRO#480, an ER^+ breast cancer sample collected from a patient subjected to chemotherapy in neo-adjuvant setting. Briefly, tumors freshly explanted from mice were mechanically shredded, digested with collagenase (Merck) and filtered through a 100 μm strainer. Digested material (isolated cells and small cell clusters) was centrifuged and embedded in 3D-matrix drops (reduced growth factor Basement Membrane Extract, BME, R&D systems), then overlaid with breast cancer organoid medium.[25] For 3D survival curves under treatment, organoids were embedded in BME drops and, after 24 - 48 h, drugs were added. Fresh drug-containing medium was replaced on day 4. On day 7 of treatment, CellTiter-Glo 3D Cell Viability Assay (Promega) was added and luminescent signal from viable organoids was recorded on Infinite M1000 Pro instrument (Tecan).
# [2] = Thermodynamic solubility, shake-flask method; type: physicochemical; conditions: HEPES buffer 0.1 M pH 7.4, 21 °C
# Experimental: Thermodynamic solubility was determined using the classical shake-flask method. The solid compound (4 mg) was suspended in 1 mL HEPES buffer (0.1 M, pH 7.4) and constantly stirred at 21 °C for 24 h. […] The injection volume for all analyses was 50 μL and the flow rate was kept at 1 mL/min during the analysis. A mobile phase gradient method was applied as a method with 5% solvent B to 99% solvent B in 5 min, followed by 3 min of elution at 99% solvent B.
# Calibration curve was generated from a serial dilution of the respective analyte in DMSO at 2.5, 1.25, 0.625, 0.313, 0.156, 0.078, 0.039 mM starting from a 10 mM DMSO stock solution. Subsequently, 2 μL of each dilution was added to 198 μL of a buffer (HEPES, 0.1 M, pH 7.4)/acetonitrile mixture in a 3:2 ratio yielding final dilutions of 25, 12.5, 6.25, 3.125, 1.562, 0.781, 0.391 μM. These were then subjected to HPLC analysis as described above.
# Using the results from the linear regression of the internal calibration measurement points (Figure S5) and the mean AUC values from the saturated aqueous solutions, the concentration C of the analytes in the saturated aqueous solution, expressed in μM, were calculated using Equation 2:(Equation 1) AUC=Slope·C+YIntercept (Equation 2) C=AUC−YIntercept/Slope
# [3] = Compound stability in aqueous environment; type: physicochemical; conditions: 12.5 μM, HEPES pH 7.4/acetonitrile 3:2, 1% DMSO, 21 °C, 5 days
# Experimental: The stability of the compounds was evaluated at a concentration of 12.5 μM in a 3:2 mixture of buffer (HEPES, 0.1 M, pH 7.4) and acetonitrile, with 1% DMSO. Acetonitrile was added because the concentration of 12.5 μM exceeded the thermodynamic solubility of the compounds in the buffer. This addition thereby prevented the formation of precipitates and a gradual decrease in compound concentration during the measurement. The resulting solution was stirred at 21 °C in a sealed vial (crimp neck vials, 5 mL, clear (Cat. No. 548-0611A) in combination with natural rubber septa (548-0565A) and aluminum crimp caps (548-3278A), VWR International) for 5 days. […] The AUC measured was subsequently plotted as a function of the incubation time (Figure S3). No signs of decomposition could be observed over the given time.
# [4] = test system: CTC-ITB-01 cells; assay: Clonogenic assay of CTC-ITB-01 cells; type: cell-based, human; conditions: CTC-ITB-01, two weeks of treatment
# Experimental: (§1) Cells were seeded at a density of 1–2×10^3 cells/well in a 6-well plate and treated with increasing concentrations of the X compounds for 14–21 days. Medium and compounds were renewed every 7 days. The experiments were terminated by fixing the cells with methanol and the colonies formed were visualized after staining with 0.5% crystal violet (w/v) in 20% methanol (v/v). Plates were photographed and the area covered by the colonies was calculated using the ColonyArea Plugin for Fiji (RRID:SCR_003070).[20]
# [5] = test system: MCF-7 luc D538G and MCF-7 luc Y537S; assay: Clonogenic assay, cells expressing the two mutant ERs (range over both); type: cell-based; conditions: Homo sapiens, MCF7, read-out: IC50 clonal expansion in cells expressing the two mutant ERs
# Experimental: as §1
# [6] = Parallel artificial membrane permeability assay (PAMPA); conditions: for Conc. acceptor well / Conc. donor well: PAMPA after incubation
# Experimental: The plates were stored at – 20 °C until ready for use. Prior to use, the plate was prewarmed at room temperature for 30 min. Donor- and acceptor solutions were prepared as 12 mM phosphate buffered saline with a pH of 6.5 (donor) respectively 7.4 (acceptor). […] Then, 300 μL of each donor solution were filled into the donor (bottom) wells of the PAMPA plate. 200 μL of the acceptor medium were loaded into each well of the pre-coated receiver plate (top). […] The compound concentrations in the donor- and acceptor wells were then determined using a Jasco 2 HPLC system equipped with a ReproSil-Pur 120 ODS-3 column (5 μm, 50 × 2 mm) and UV detection. […] The injection volume was 40 μL and the flow rate 1 mL/min. […] For X15695, two calibration curves were prepared in the presence (donor well) and absence (acceptor well) of 10% ethanol. (Figure S6). The experiments were performed in triplicates.
# Where cA(t) is the compound concentration in the acceptor well in μmol⋅l^−1, cD(t) is the compound concentration in the donor well in […], VA and VD is the volume of the acceptor respectively donor solution per well in mL, A is the membrane area in cm^2 and t the incubation time in seconds (Table S3).
# [7] = test system: ERα target genes (PGR, TFF1, PDZK1, GREB1); assay: Quantitative RT-PCR of ER target genes in MCF-7 cells; conditions: MCF-7, 1 μM, absence and presence of 10 nM E2, 24 h
compound,measurement,setting,value
Fc1ccc(-c2cn3cc(C(F)(F)F)cc(Cl)c3n2)cc1 [X15695],organoid viability (survival),[1],significantly reduced survival in a dose-dependent manner
same,solubility thermodynamic at 24 h,[2],3 µM
same,solubility thermodynamic at 24 h,"[2]; HEPES buffer, 21 °C, pH 7.4, aqueous buffer, thermodynamic from solid",2.99 µM
same,stability in aqueous environment,[3],no obvious decomposition detected
same,inhibition of clonal expansion compared to fulvestrant,[4],about three orders of magnitude more potent
same,IC50,[5],7.82 to 11.6 nM
same,"Papp at 5 h, 200 µM",[6]; PAMPA,8.68 ×10⁻⁶ cm/s
same,Conc. acceptor well,[6]; replica 1,55.19 µM
same,Conc. donor well,[6]; replica 1,214.69 µM
same,Conc. acceptor well,[6]; replica 2,55.84 µM
same,Conc. donor well,[6]; replica 2,190.41 µM
same,Conc. acceptor well,[6]; replica 3,25.23 µM
same,Conc. donor well,[6]; replica 3,225.99 µM
Cc1cc(Cl)c2nc(-c3ccccc3)cn2c1 [X19728],expression of ERα target genes (RT-PCR),[7],not significant in the presence of E2
